In ChEMBL document CHEMBL1201862, “PubChem BioAssay data set” (2004):
Active and inactive are the calls of the source.

Columns and labels:
[1] = biological target: T1, DNA repair and recombination protein RAD54-like (Homo sapiens, UniProt Q92698); test: RAD54 Holliday junction migration blockers – biochemical, fluorescence, cherry-picked samples, dose series, confirmation (AID 651657); assay type: functional
T1 sequence (Q92698 whole entry): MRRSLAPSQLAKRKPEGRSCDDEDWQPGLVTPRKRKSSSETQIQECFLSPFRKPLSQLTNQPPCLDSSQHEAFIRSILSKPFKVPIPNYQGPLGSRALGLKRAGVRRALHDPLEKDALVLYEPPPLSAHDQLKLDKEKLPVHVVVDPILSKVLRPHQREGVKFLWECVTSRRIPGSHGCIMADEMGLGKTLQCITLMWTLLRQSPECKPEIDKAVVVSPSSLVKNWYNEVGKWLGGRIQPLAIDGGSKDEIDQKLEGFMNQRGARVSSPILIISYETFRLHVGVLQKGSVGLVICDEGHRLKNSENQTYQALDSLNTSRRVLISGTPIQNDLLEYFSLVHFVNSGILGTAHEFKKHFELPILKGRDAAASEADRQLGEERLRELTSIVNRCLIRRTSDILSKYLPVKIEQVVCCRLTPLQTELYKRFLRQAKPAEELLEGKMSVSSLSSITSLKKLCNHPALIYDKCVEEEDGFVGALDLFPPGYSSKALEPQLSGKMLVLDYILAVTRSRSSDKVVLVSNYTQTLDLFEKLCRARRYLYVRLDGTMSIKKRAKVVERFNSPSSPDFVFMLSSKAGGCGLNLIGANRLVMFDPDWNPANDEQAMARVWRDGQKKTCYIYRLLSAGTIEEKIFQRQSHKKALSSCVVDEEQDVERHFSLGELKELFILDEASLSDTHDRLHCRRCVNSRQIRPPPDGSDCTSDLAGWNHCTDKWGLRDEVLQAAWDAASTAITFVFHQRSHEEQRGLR

[2] = biological target: Lysosomal acid glucosylceramidase (Homo sapiens, UniProt P04062); test: Dose response cell-based high throughput screening assay to identify enhancers of beta-glucosidase activity. [Related pubchem assays: 784 ]; assay type: functional
Kallikrein-7 = Kallikrein-7 (Homo sapiens, UniProt P49862); test: Fluorescence Intensity-based biochemical primary high throughput dose response assay to identify activators of kallikrein-7 (K7) zymogen.
[3] = biological target: T2, Sentrin-specific protease 1 (Homo sapiens, UniProt Q9P0U3); test: Dose response confirmation of small molecule inhibitors of the catalytic domain of the SUMO protease, SENP1 in a FRET assay.; assay type: functional; details: read-out: IC50_Mean
T2 sequence (Q9P0U3 whole entry): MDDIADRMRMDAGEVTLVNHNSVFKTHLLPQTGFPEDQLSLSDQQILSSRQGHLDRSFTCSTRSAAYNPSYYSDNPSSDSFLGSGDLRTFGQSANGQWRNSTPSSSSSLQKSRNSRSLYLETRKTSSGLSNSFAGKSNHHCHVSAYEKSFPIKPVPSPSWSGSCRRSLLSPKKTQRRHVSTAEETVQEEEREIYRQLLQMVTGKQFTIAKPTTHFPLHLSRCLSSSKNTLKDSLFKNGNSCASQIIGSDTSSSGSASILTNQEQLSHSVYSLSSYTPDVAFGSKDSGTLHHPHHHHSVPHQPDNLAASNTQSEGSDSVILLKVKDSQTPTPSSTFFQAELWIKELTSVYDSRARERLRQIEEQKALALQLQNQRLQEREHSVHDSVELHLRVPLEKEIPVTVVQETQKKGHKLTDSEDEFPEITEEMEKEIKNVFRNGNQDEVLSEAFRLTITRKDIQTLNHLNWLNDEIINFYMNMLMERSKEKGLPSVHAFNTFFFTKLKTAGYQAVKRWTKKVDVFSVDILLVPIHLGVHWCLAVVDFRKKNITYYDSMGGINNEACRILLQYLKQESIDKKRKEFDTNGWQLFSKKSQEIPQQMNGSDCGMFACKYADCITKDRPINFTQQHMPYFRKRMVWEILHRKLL

Cytochrome P450 3A4 = Cytochrome P450 3A4 (Homo sapiens, UniProt P08684);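 further: CYP3A4 tested as one member of a cytochrome P450 panel screen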
[4] = biological target: T2, Sentrin-specific protease 1; test: SENP1 catalytic domain blockers, concentration series – biochemical, kinetic FRET, dose response (AID 651697); assay type: functional; details: read-out: IC50_Mean
[5] = HEK-293T cell viability reduction – luminescence, B-cell screen hits, cytotoxicity control for BCR NF-kB inhibitor project, dose response (AID 489021); assay type: functional, cell-based;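 further: HEK-293T cells carrying an NF-kB luciferase reporter; cells exposed to compound for about 14 hours before viability readout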
Protein Rev = Protein Rev (Human immunodeficiency virus type 1 group M subtype B (isolate WMJ22)(HIV-1), UniProt P05866); test: inhibitors of Rev protein–RRE RNA complex – biochemical, protein-RNA interaction, dose response (AID 842); design: species or system Human immunodeficiency virus 1
Bcl-2-related protein A1 [6] = biological target: T3, Bcl-2-related protein A1 (Mus musculus, UniProt Q07440); test: Bfl-1 binding inhibitors, SAR follow-up, biochemical, fluorescence polarization (AID 1070)
T3 sequence (Q07440 whole entry): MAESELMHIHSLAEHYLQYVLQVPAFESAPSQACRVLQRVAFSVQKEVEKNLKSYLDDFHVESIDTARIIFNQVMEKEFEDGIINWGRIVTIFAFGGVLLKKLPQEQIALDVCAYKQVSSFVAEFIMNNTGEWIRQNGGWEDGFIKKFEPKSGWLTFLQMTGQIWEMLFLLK

[7] = biological target: Glyceraldehyde-3-phosphate dehydrogenase (Homo sapiens, UniProt P04406)
Bcl-2-related protein A1 [8] = biological target: T3, Bcl-2-related protein A1; test: small-molecule antagonists of Bfl-1/BH3 interaction – biochemical, TR-FRET, mouse Bfl-1, confirmation (AID 621);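 further: TR-FRET binding of GST-Bfl-1 to FITC-labelled Bid peptide via terbium antibody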
[9] = biological target: T4, Nuclear receptor subfamily 0 group B member 1 (Homo sapiens, UniProt P51843); assay type: functional, cell-based;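 further: HEK293T cells transfected with SF-1 and DAX-1 plus StAR promoter luciferase reporter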
T4 sequence (P51843 whole entry): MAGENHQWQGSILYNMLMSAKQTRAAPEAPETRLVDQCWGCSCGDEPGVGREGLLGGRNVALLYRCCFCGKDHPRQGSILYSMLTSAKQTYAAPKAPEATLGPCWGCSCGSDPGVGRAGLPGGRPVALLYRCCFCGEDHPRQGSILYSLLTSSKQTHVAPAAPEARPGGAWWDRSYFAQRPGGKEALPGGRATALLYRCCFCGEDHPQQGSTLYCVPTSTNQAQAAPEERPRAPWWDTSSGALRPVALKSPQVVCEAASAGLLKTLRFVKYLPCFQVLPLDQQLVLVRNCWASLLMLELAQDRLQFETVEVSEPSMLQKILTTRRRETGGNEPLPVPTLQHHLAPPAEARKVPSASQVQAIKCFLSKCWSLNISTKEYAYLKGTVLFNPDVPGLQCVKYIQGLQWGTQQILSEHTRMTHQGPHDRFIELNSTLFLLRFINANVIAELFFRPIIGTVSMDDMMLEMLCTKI

cells [10] = assay type: functional, cell-based
[11] = antiviral protection against BTV-induced cell death – arbovirus, BSR cells, confirmation (AID 1250); assay type: functional;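 further: protection from viral cytopathic effect measured as cell viability by ATP luminescence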
[12] = biological target: Induced myeloid leukemia cell differentiation protein Mcl-1 (Homo sapiens, UniProt Q07820); assay type: functional
[13] = viability of HCT116 lacking mutant beta-catenin – cell-based, human colon tumor, dose response (AID 1045); assay type: functional;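 further: HCT116 colon tumor cells with beta catenin knocked out; cells exposed to compound for 60 hours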
[14] = biological target: Eukaryotic translation initiation factor 4E (Mus musculus, UniProt P63073); test: blockers of eIF4G binding by eIF4E – biochemical, TR-FRET, dose response (AID 855); assay type: functional;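 further: potency for disrupting eIF4E binding to eIF4GI seen as loss of FRET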
[15] = Luminescence Cell-Based Dose Retest to Confirm Inhibitors of Cancer Stem Cells. [Related pubchem assays (depositor defined):AID2717, AID2721]; assay type: functional; details: Homo sapiens
SUMO-activating enzyme [16] = biological target: T5, SUMO-activating enzyme (Homo sapiens, UniProt Q9UBT2); test: blockers of UBC9-mediated SUMO conjugation – biochemical, AlphaScreen, SUMOylation inhibitor project, confirmation (AID 2018); assay type: functional
[17] = viability of PTEN-deleted HCT116 cells – cell-based, HCT116 PTEN knockout, dose response (AID 1047); assay type: functional;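 further: HCT116 colon tumor cells with PTEN knocked out; cells exposed to compound for 60 hours before readout; potency for loss of cell viability measured by luminescence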
[18] = viability of uninfected HEp-2 cells – cell-based, HTS, cytotoxicity control for RSV inhibitor project, dose response (AID 2410); assay type: functional; details: human respiratory syncytial virus
SUMO-activating enzyme [19] = biological target: T5, SUMO-activating enzyme; test: blockers of SAE1/SAE2–UBC9 SUMO transfer – biochemical, HTRF, uHTS, primary screen (AID 2006); assay type: protein-complex assay
Vero = test: cells; assay type: functional; details: Chlorocebus sabaeus
cells [20] = test: cells
[21] = biological target: Melanin-concentrating hormone receptor 1 (Homo sapiens, UniProt Q99705); test: Fluorescence-based counterscreen for antagonists of the G-protein coupled receptor 7 (GPR7): cell-based high throughput dose response assay to identify antagonists of the melanin-concentrating hormone receptor 1 (MCHR1).; assay type: functional
[22] = biological target: Glucose-6-phosphate 1-dehydrogenase (Homo sapiens, UniProt P11413); test: inhibition of Homo sapiens G6PD, dose series – biochemical, fluorescence, selectivity assay for P. falciparum G6PD inhibitor project, dose response (AID 504792); assay type: functional
[23] = biological target: Metabotropic glutamate receptor 4 (Rattus norvegicus, UniProt P31423); test: Modulation of the Metabotropic Glutamate Receptor mGluR4: Rat PAM Potency. [Related pubchem assays (depositor defined):AID2437, AID2807]; assay type: functional
[24] = biological target: T6, Rac GTPase-activating protein 1 (Homo sapiens, UniProt Q9H0H5); test: blockers of MgcRacGAP-driven Rac1 GTP hydrolysis – biochemical, ADP Hunter fluorescence, primary and confirmatory, confirmation (AID 624330); assay type: functional
T6 sequence (Q9H0H5 whole entry): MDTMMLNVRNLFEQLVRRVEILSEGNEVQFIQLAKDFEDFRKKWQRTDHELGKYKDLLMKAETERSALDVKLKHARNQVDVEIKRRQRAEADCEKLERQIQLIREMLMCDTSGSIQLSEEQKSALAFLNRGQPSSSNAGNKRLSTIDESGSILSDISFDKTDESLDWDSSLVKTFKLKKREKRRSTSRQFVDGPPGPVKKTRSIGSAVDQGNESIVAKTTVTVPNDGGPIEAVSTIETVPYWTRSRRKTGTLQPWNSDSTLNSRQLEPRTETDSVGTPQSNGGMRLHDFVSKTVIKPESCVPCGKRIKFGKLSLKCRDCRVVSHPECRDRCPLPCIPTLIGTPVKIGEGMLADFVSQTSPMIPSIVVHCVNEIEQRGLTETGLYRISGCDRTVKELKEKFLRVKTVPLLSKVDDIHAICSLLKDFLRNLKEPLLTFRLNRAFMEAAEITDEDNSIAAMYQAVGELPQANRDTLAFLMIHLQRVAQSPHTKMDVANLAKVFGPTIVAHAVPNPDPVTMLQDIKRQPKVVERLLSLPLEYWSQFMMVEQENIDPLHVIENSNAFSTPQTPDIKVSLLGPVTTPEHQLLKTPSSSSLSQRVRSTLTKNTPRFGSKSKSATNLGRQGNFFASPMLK

T5 sequence (Q9UBE0 whole entry): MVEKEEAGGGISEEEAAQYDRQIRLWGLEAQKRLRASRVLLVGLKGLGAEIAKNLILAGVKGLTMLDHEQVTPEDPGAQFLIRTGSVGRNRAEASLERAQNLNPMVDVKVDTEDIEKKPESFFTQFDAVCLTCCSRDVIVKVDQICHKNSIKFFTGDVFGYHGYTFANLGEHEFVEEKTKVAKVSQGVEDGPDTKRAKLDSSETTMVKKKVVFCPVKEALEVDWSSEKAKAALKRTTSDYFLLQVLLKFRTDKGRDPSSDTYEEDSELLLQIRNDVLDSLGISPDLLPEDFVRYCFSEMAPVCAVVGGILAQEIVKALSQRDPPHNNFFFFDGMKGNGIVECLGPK
T5 sequence (Q9UBT2 whole entry): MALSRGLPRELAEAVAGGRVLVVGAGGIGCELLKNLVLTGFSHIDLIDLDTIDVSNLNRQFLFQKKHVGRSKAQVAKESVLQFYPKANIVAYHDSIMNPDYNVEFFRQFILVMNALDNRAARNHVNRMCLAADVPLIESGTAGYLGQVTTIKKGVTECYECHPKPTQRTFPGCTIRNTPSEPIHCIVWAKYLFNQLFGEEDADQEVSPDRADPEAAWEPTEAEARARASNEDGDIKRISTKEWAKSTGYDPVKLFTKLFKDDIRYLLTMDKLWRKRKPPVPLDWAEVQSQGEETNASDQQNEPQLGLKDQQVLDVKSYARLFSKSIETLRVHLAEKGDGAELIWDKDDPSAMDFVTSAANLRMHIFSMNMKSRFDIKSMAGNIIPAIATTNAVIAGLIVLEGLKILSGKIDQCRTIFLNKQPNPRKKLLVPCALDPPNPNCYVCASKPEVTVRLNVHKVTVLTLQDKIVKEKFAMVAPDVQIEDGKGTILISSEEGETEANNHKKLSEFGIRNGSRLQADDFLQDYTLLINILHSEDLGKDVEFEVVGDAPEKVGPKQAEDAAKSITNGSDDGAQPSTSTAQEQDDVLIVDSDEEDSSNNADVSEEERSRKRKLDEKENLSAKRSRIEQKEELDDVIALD
Metabotropic glutamate receptor 4, sequence (P31423 whole entry): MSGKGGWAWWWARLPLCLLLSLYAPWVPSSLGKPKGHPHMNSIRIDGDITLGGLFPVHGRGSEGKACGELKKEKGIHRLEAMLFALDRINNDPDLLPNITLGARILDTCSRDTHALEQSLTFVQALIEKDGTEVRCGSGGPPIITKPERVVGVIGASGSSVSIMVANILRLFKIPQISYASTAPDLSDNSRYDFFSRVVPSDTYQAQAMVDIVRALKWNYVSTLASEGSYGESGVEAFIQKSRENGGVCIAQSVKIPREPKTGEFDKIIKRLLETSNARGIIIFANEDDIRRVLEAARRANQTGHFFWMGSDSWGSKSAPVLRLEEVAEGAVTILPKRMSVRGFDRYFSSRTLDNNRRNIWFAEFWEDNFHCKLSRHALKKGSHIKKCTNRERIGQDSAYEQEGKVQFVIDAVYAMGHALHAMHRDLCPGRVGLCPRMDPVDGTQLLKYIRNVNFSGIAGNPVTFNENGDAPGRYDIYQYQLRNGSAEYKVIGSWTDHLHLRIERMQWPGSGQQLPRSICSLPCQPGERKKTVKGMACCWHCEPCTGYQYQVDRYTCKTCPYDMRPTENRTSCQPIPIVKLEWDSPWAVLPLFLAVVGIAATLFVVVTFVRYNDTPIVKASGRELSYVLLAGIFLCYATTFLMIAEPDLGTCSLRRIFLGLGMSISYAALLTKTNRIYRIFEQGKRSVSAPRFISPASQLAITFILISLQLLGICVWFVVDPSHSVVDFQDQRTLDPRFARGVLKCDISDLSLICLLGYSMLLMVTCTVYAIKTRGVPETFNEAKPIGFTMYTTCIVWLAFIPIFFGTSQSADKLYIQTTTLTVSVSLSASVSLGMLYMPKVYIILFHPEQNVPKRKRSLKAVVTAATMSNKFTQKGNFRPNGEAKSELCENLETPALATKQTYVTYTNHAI
Lysosomal acid glucosylceramidase, sequence (P04062 whole entry): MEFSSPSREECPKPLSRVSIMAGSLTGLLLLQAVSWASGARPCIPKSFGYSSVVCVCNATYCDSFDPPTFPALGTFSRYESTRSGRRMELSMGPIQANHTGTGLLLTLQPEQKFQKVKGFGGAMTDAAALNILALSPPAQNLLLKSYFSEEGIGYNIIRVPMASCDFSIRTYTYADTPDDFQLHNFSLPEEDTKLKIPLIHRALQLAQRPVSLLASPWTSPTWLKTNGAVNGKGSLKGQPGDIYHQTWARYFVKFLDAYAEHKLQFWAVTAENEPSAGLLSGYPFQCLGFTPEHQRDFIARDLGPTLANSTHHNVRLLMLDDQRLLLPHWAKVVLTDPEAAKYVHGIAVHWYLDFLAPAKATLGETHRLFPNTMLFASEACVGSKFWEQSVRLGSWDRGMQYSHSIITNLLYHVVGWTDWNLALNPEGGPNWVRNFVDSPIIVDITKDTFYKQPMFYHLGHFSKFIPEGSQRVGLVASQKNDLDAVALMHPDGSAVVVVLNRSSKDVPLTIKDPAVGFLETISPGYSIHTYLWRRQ
Protein Rev, sequence (P05866 whole entry): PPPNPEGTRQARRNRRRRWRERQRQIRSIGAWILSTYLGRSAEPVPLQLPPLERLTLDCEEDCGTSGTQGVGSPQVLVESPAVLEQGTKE
Glyceraldehyde-3-phosphate dehydrogenase, sequence (P04406 whole entry): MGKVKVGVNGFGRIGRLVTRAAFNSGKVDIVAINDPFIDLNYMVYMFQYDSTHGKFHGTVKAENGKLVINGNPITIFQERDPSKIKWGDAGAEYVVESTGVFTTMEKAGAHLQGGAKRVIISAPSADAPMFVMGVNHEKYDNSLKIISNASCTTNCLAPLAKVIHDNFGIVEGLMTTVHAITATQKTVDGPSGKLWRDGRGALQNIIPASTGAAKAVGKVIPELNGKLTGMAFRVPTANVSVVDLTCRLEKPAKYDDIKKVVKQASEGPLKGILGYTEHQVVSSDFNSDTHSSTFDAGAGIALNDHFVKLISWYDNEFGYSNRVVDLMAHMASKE
Glucose-6-phosphate 1-dehydrogenase, sequence (P11413 whole entry): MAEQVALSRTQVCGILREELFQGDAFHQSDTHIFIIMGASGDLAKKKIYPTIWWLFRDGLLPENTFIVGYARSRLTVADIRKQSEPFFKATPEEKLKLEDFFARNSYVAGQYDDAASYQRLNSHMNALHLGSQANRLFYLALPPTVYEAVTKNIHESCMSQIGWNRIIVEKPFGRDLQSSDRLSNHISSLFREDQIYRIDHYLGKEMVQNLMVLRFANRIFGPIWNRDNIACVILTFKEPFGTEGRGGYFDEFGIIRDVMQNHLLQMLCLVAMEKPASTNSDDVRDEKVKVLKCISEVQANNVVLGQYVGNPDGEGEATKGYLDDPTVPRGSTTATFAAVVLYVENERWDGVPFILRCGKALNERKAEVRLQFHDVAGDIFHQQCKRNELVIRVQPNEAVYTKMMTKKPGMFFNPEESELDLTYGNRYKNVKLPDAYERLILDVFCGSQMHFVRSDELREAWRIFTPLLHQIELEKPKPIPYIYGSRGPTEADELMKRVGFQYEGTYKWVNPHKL
Kallikrein-7, sequence (P49862 whole entry, the tested form may be a part): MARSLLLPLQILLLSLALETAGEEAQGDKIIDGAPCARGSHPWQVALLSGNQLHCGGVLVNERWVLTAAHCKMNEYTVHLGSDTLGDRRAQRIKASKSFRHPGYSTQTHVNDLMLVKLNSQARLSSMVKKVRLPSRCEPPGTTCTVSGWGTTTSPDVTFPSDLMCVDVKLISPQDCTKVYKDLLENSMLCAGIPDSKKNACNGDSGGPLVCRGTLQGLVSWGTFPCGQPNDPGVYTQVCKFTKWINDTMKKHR
Melanin-concentrating hormone receptor 1, sequence (Q99705 whole entry): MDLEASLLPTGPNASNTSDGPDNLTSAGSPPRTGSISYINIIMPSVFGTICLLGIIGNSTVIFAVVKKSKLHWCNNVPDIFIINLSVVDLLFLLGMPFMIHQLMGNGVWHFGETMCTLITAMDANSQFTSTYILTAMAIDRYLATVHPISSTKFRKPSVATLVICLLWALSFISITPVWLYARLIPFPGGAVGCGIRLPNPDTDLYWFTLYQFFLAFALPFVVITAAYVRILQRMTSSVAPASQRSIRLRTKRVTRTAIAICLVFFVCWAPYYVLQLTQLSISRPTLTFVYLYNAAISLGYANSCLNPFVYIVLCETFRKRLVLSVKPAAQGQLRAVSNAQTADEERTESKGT
Eukaryotic translation initiation factor 4E, sequence (P63073 whole entry): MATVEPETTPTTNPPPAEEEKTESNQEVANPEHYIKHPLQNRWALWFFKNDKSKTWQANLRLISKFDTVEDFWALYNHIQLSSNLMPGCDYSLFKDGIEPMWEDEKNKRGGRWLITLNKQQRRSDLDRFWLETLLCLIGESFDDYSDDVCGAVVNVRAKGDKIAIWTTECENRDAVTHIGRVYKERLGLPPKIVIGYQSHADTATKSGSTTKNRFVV
Cytochrome P450 3A4, sequence (P08684 whole entry, the tested form may be a part): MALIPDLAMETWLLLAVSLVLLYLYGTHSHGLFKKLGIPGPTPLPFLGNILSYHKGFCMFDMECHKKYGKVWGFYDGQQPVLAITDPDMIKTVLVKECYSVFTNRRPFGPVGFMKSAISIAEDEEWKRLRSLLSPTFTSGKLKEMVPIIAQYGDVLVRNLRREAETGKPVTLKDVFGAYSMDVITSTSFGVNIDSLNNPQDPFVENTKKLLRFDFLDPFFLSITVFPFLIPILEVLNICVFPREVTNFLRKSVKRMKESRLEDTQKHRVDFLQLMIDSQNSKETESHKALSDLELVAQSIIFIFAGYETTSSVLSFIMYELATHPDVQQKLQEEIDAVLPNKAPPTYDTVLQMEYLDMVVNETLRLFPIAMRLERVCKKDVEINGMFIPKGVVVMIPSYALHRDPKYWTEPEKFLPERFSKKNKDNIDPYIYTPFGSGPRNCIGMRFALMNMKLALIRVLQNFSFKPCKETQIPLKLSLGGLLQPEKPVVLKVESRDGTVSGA

CCOCCCn1c(=N)c(C(=O)NCCN2CCOCC2)cc2c(=O)n3cccc(C)c3nc21
AC50 [1]: 25.3 µM (active)
EC50 [2]: > 50 µM (not active)
EC50 (Kallikrein-7): > 69.5 µM (inactive)

CCN1C(=O)c2cccc3c(NC(=O)c4cccc(N5C(=O)CCC5=O)c4)ccc1c23
IC50 [3]: 11.3 µM (active)
AC50 (Cytochrome P450 3A4): 22.4 µM (inconclusive)
IC50 [4]: 17.9 µM (active)
IC50 [5]: > 80 µM (inactive)

CC(C)COc1ccc(Cc2cnc(N)nc2N)cc1
IC50 (Protein Rev): > 79.4 µM (not active)

CN1CCN(C2=C(Cl)C(=O)N(c3ccnc(Cl)c3)C2=O)CC1
IC50 (Bcl-2-related protein A1 [6]): 29 µM (active)
IC50 [7]: > 100 µM (not active)
IC50 (Bcl-2-related protein A1 [8]): 35.6 µM (active)

COc1ccc(/C=C/C(=O)Nc2ccccc2C(=O)O)cc1
IC50 [9]: > 67.5 µM (inactive)
IC50 (cells [10]): > 67.5 µM (inactive)
IC50 [11]: 31 µM (active)

COc1cc2c(-c3ccc(O)cc3)nc3c(c(C)nn3-c3ccccc3)c2cc1OC
IC50 [12]: < 0.4 µM (active)
EC50 [13]: 8.96 µM (active)
IC50 [14]: 53.5 µM (inactive)
AC50 [15]: 1.23 µM (active)
IC50 (SUMO-activating enzyme [16]): 2.06 µM (active)
EC50 [17]: 9.2 µM (active)
CC50 [18]: 9.63 µM (active)
IC50 (SUMO-activating enzyme [19]): 7.67 µM (active)
CC50 (Vero): 19.7 µM (active)
IC50 (cells [20]): 19.1 µM (active)

COCCCNC(=O)/C=C1\Sc2ccccc2N(Cc2ccccc2F)C1=O
IC50 [21]: 28.8 µM (not active)

CC1=C(C(N)=O)C(c2cccs2)n2nc(-c3cccc(C)c3)nc2N1 (centres undefined)
EC50 [2]: > 50 µM (not active)

O=C(Nc1sc2c(c1C(=O)O)CCC2)c1ccc(F)cc1
IC50 [22]: > 80 µM (inactive)
IC50 [11]: 31.4 µM (active)

Cc1cccc(N2C(=O)C(Cl)=C(N3CCN[C@@H](C)C3)C2=O)c1
IC50 [7]: > 50 µM (inconclusive)

O=C(Nc1ccc(Cl)c(Cl)c1)c1ccncn1
EC50 [23]: 3.37 µM (active)

O=[N+]([O-])c1cc([N+](=O)[O-])c2nonc2c1Nc1ccc(O)cc1
IC50 (SUMO-activating enzyme [19]): > 100 µM (inactive)
IC50 [24]: 56.8 µM (active)

NCCCC(=O)N1c2ccccc2Sc2ccccc21
IC50 (Protein Rev): > 79.4 µM (not active)

O=C(Nc1ccc(N2C(=O)CC(c3ccccc3)C2=O)c(Cl)c1)c1ccccn1 (centres undefined)
EC50 [23]: 0.49 µM (active)
